Experimental data published in patent publication EP0435794A1, “Alkenyl- or heteroaryl thio, sulfone, sulfoxy herbicides” (RHONE-POULENC AGROCHIMIE, priority 1989, dated 1991).

Tested on: Alopecurus myosuroides
Assay: Exemple C: selectivity test in field crops, pre-emergence (weed)
Type: in vivo
Conditions: dose 1 Kg m.a./ha, 24 days
Text: (§1) Exemple C - Essai de sélectivité en grandes cultures avec application herbicide, en prélevée des espèces végétales
(§2) Dans des pots de 7 X 7 X 8 cm remplis de terre agricole légère, on sème un nombre de graines déterminé en fonction de l'espèce végétale et de la grosseur de la graine.
(§3) On recouvre ensuite les graines d'une couche de terre d'environ 3 mm d'épaisseur.
(§4) Les pots sont alors traités par pulvérisation de bouillie en quantité correspondant à une dose volumique d'application de 500 l/ha et contenant la matière active à la concentration désirée.
(§5) La bouillie a été préparée de la même manière qu'à l'exemple A.
(§6) Les pots traités sont ensuite placés dans des bacs destinés à recevoir l'eau d'arrosage, en subirrigation, et maintenus pendant 24 jours à température ambiante sous 70 % d'humidité relative.
(§7) Le relevé est effectué de la façon suivante:
(§8) Au bout de 24 jours, on mesure un pourcentage (D) de destruction du nombre de pieds dans le pot traité par rapport au nombre de plantes dans les pots non traités (témoin). On mesure, sur les plantes traitées restantes, le pourcentage de réduction de taille (RT) par rapport aux plantes témoins.
(§9) Le pourcentage de volume foliaire non détruit par le produit est donc donné par la formule: ([100-D] X [100-RT])/(100)= A [formula]
(§10) Cette valeur A est transformée en notation de 0 à 5 selon l'échelle suivante:
(§11) Ainsi, un produit est jugé comme sélectif vis à vis de la culture lorsque la valeur A notée est de 0 ou 1.
(§12) Les résultats obtenus sont présentés dans l'exemple C pour des doses d'application de 500, 1000, 2000 ou 4000 g de matière active par hectare selon les produits.
(§13) Les espèces végétales utilisées dans cet exemple sont: […]

For `Cc1cc(C(O)(CBr)CS(=O)(=O)c2ccsc2)ccc1F` (stereo not shown) [compound 66], which “Notation de l'activité herbicide ALO” value is on record?
The value was 3 (30 à 50).

Same assay, conditions: dose 2 Kg m.a./ha, 24 days

For `C=C(CS(=O)(=O)/C=C/C)c1ccccc1` [compound 70, (E)-2-phényl 1-(1-propénylsulfonyl)2-propène], which “Notation de l'activité herbicide ALO” value is on record?
Its value is 4 (10 à 30).

Tested on: Digitaria sanguinalis
Assay: as above
Type: in vivo
Conditions: dose 1 Kg m.a./ha, 24 days
Text: as §1, §2, §3, §4, §5, §6, §7, §8, §9, §10, §11, §12, §13

`CS(=O)(=O)OCC(O)(CS(=O)(=O)c1cccs1)c1cc(Cl)cc(Cl)c1` (stereo not shown) [compound 56, 2-(3,5-dichlorophényl) 1-méthylsulfonate 3-(2-thiénylsulfonyl) 2-propanol] was tested. Which “Notation de l'activité herbicide DIG” value did it give?
Its value is 5 (O à 10).

`O=S(=O)(CC(O)(CBr)c1cc(Cl)cc(Cl)c1)c1cccs1` (stereo not shown) [compound 62] was tested. Which “Notation de l'activité herbicide DIG” value did it give?
Its value is 5 (O à 10).

For `Cc1cc(C(O)(CBr)CS(=O)(=O)c2ccsc2)ccc1F` (stereo not shown) [compound 66], which “Notation de l'activité herbicide DIG” value is on record?
Its value is 5 (O à 10).

Tested on: Echinochloa crus-galli
Assay: as above
Type: in vivo
Conditions: dose 1 Kg m.a./ha, 24 days
Text: as §1, §2, §3, §4, §5, §6, §7, §8, §9, §10, §11, §12, §13

For `CS(=O)(=O)OCC(O)(CS(=O)(=O)c1cccs1)c1cc(Cl)cc(Cl)c1` (stereo not shown) [compound 56, 2-(3,5-dichlorophényl) 1-méthylsulfonate 3-(2-thiénylsulfonyl) 2-propanol], which “Notation de l'activité herbicide ECh” value is on record?
The value was 5 (O à 10).

For `O=S(=O)(CC(O)(CBr)c1cc(Cl)cc(Cl)c1)c1cccs1` (stereo not shown) [compound 62], which “Notation de l'activité herbicide ECh” value is on record?
Its value is 5 (O à 10).

Which “Notation de l'activité herbicide ECh” value does the source give for `Cc1cc(C(O)(CBr)CS(=O)(=O)c2ccsc2)ccc1F` (stereo not shown) [compound 66] here?
The value was 5 (O à 10).

Same assay, conditions: dose 2 Kg m.a./ha, 24 days

How did the “Notation de l'activité herbicide ECh” value turn out when `C=C(CS(=O)(=O)/C=C/C)c1ccccc1` [compound 70, (E)-2-phényl 1-(1-propénylsulfonyl)2-propène] was run?
The value was 5 (O à 10).

Tested on: Panicum milicaeum
Assay: as above
Type: in vivo
Conditions: dose 1 Kg m.a./ha, 24 days
Text: as §1, §2, §3, §4, §5, §6, §7, §8, §9, §10, §11, §12, §13

For `CS(=O)(=O)OCC(O)(CS(=O)(=O)c1cccs1)c1cc(Cl)cc(Cl)c1` (stereo not shown) [compound 56, 2-(3,5-dichlorophényl) 1-méthylsulfonate 3-(2-thiénylsulfonyl) 2-propanol], which “Notation de l'activité herbicide PAN” value is on record?
Its value is 5 (O à 10).

Which “Notation de l'activité herbicide PAN” value does the source give for `O=S(=O)(CC(O)(CBr)c1cc(Cl)cc(Cl)c1)c1cccs1` (stereo not shown) [compound 62] here?
Its value is 4 (10 à 30).

With `Cc1cc(C(O)(CBr)CS(=O)(=O)c2ccsc2)ccc1F` (stereo not shown) [compound 66] as the molecule, how does the “Notation de l'activité herbicide PAN” value read?
The value was 3 (30 à 50).

Same assay, conditions: dose 2 Kg m.a./ha, 24 days

With `C=C(CS(=O)(=O)/C=C/C)c1ccccc1` [compound 70, (E)-2-phényl 1-(1-propénylsulfonyl)2-propène] as the molecule, how does the “Notation de l'activité herbicide PAN” value read?
The value was 3 (30 à 50).

Tested on: Setaria faberii
Assay: as above
Type: in vivo
Conditions: dose 1 Kg m.a./ha, 24 days
Text: as §1, §2, §3, §4, §5, §6, §7, §8, §9, §10, §11, §12, §13

With `CS(=O)(=O)OCC(O)(CS(=O)(=O)c1cccs1)c1cc(Cl)cc(Cl)c1` (stereo not shown) [compound 56, 2-(3,5-dichlorophényl) 1-méthylsulfonate 3-(2-thiénylsulfonyl) 2-propanol] as the molecule, how does the “Notation de l'activité herbicide SET” value read?
Its value is 5 (O à 10).

Which “Notation de l'activité herbicide SET” value does the source give for `O=S(=O)(CC(O)(CBr)c1cc(Cl)cc(Cl)c1)c1cccs1` (stereo not shown) [compound 62] here?
Its value is 4 (10 à 30).

Which “Notation de l'activité herbicide SET” value does the source give for `Cc1cc(C(O)(CBr)CS(=O)(=O)c2ccsc2)ccc1F` (stereo not shown) [compound 66] here?
The value was 3 (30 à 50).

Same assay, conditions: dose 2 Kg m.a./ha, 24 days

`C=C(CS(=O)(=O)/C=C/C)c1ccccc1` [compound 70, (E)-2-phényl 1-(1-propénylsulfonyl)2-propène] was tested. Which “Notation de l'activité herbicide SET” value did it give?
The value was 3 (30 à 50).

Tested on: Sorghum halepense
Assay: as above
Type: in vivo
Conditions: dose 1 Kg m.a./ha, 24 days
Text: as §1, §2, §3, §4, §5, §6, §7, §8, §9, §10, §11, §12, §13

How did the “Notation de l'activité herbicide SOR” value turn out when `CS(=O)(=O)OCC(O)(CS(=O)(=O)c1cccs1)c1cc(Cl)cc(Cl)c1` (stereo not shown) [compound 56, 2-(3,5-dichlorophényl) 1-méthylsulfonate 3-(2-thiénylsulfonyl) 2-propanol] was run?
The value was 2 (50 à 70).

How did the “Notation de l'activité herbicide SOR” value turn out when `O=S(=O)(CC(O)(CBr)c1cc(Cl)cc(Cl)c1)c1cccs1` (stereo not shown) [compound 62] was run?
Its value is 2 (50 à 70).

`Cc1cc(C(O)(CBr)CS(=O)(=O)c2ccsc2)ccc1F` (stereo not shown) [compound 66] was tested. Which “Notation de l'activité herbicide SOR” value did it give?
The value was 5 (O à 10).

Same assay, conditions: dose 2 Kg m.a./ha, 24 days

`C=C(CS(=O)(=O)/C=C/C)c1ccccc1` [compound 70, (E)-2-phényl 1-(1-propénylsulfonyl)2-propène] was tested. Which “Notation de l'activité herbicide SOR” value did it give?
The value was 5 (O à 10).

Tested on: blé
Assay: Exemple C: selectivity test in field crops, pre-emergence (crop); also: ranges in brackets are in %
Type: in vivo
Conditions: dose 1 Kg m.a./ha, 24 days, 0 or 1 = selective
Text: as §1, §2, §3, §4, §5, §6, §7, §8, §9, §10, §11, §12
(§14) Les espèces végétales utilisées dans cet exemple sont:
(§15) Comme on peut le voir sur le tableau de résultats de cet exemple C, de nombreux produits présentent une excellente activité antigraminée de prélevée tout en montrant une excellente sélectivité pour 1 ou 2 ou 3 ou 4 des 4 cultures testées = blé, maïs, riz, soja.

How did the “Notation de l'activité herbicide TRZ” value turn out when `CS(=O)(=O)OCC(O)(CS(=O)(=O)c1cccs1)c1cc(Cl)cc(Cl)c1` (stereo not shown) [compound 56, 2-(3,5-dichlorophényl) 1-méthylsulfonate 3-(2-thiénylsulfonyl) 2-propanol] was run?
Its value is 2 (50 à 70).

Which “Notation de l'activité herbicide TRZ” value does the source give for `O=S(=O)(CC(O)(CBr)c1cc(Cl)cc(Cl)c1)c1cccs1` (stereo not shown) [compound 62] here?
Its value is 2 (50 à 70).

For `Cc1cc(C(O)(CBr)CS(=O)(=O)c2ccsc2)ccc1F` (stereo not shown) [compound 66], which “Notation de l'activité herbicide TRZ” value is on record?
Its value is 1 (70 à 90).

Same assay, conditions: dose 2 Kg m.a./ha, 24 days, 0 or 1 = selective

With `C=C(CS(=O)(=O)/C=C/C)c1ccccc1` [compound 70, (E)-2-phényl 1-(1-propénylsulfonyl)2-propène] as the molecule, how does the “Notation de l'activité herbicide TRZ” value read?
The value was 2 (50 à 70).

Tested on: maïs
Assay: as above
Type: in vivo
Conditions: dose 1 Kg m.a./ha, 24 days, 0 or 1 = selective
Text: as §1, §2, §3, §4, §5, §6, §7, §8, §9, §10, §11, §12, §14, §15

For `CS(=O)(=O)OCC(O)(CS(=O)(=O)c1cccs1)c1cc(Cl)cc(Cl)c1` (stereo not shown) [compound 56, 2-(3,5-dichlorophényl) 1-méthylsulfonate 3-(2-thiénylsulfonyl) 2-propanol], which “Notation de l'activité herbicide ZEA” value is on record?
Its value is 1 (70 à 90).

For `O=S(=O)(CC(O)(CBr)c1cc(Cl)cc(Cl)c1)c1cccs1` (stereo not shown) [compound 62], which “Notation de l'activité herbicide ZEA” value is on record?
The value was 1 (70 à 90).

How did the “Notation de l'activité herbicide ZEA” value turn out when `Cc1cc(C(O)(CBr)CS(=O)(=O)c2ccsc2)ccc1F` (stereo not shown) [compound 66] was run?
Its value is 2 (50 à 70).

Same assay, conditions: dose 2 Kg m.a./ha, 24 days, 0 or 1 = selective

Which “Notation de l'activité herbicide ZEA” value does the source give for `C=C(CS(=O)(=O)/C=C/C)c1ccccc1` [compound 70, (E)-2-phényl 1-(1-propénylsulfonyl)2-propène] here?
The value was 0 (90 à 100).

Tested on: riz
Assay: as above
Type: in vivo
Conditions: dose 1 Kg m.a./ha, 24 days, 0 or 1 = selective
Text: as §1, §2, §3, §4, §5, §6, §7, §8, §9, §10, §11, §12, §14, §15

For `CS(=O)(=O)OCC(O)(CS(=O)(=O)c1cccs1)c1cc(Cl)cc(Cl)c1` (stereo not shown) [compound 56, 2-(3,5-dichlorophényl) 1-méthylsulfonate 3-(2-thiénylsulfonyl) 2-propanol], which “Notation de l'activité herbicide ORY” value is on record?
Its value is 2 (50 à 70).

With `O=S(=O)(CC(O)(CBr)c1cc(Cl)cc(Cl)c1)c1cccs1` (stereo not shown) [compound 62] as the molecule, how does the “Notation de l'activité herbicide ORY” value read?
Its value is 2 (50 à 70).

With `Cc1cc(C(O)(CBr)CS(=O)(=O)c2ccsc2)ccc1F` (stereo not shown) [compound 66] as the molecule, how does the “Notation de l'activité herbicide ORY” value read?
The value was 2 (50 à 70).

Same assay, conditions: dose 2 Kg m.a./ha, 24 days, 0 or 1 = selective

Which “Notation de l'activité herbicide ORY” value does the source give for `C=C(CS(=O)(=O)/C=C/C)c1ccccc1` [compound 70, (E)-2-phényl 1-(1-propénylsulfonyl)2-propène] here?
The value was 1 (70 à 90).

Tested on: soja
Assay: as above
Type: in vivo
Conditions: dose 1 Kg m.a./ha, 24 days, 0 or 1 = selective
Text: as §1, §2, §3, §4, §5, §6, §7, §8, §9, §10, §11, §12, §14, §15

With `CS(=O)(=O)OCC(O)(CS(=O)(=O)c1cccs1)c1cc(Cl)cc(Cl)c1` (stereo not shown) [compound 56, 2-(3,5-dichlorophényl) 1-méthylsulfonate 3-(2-thiénylsulfonyl) 2-propanol] as the molecule, how does the “Notation de l'activité herbicide GLY” value read?
Its value is 0 (90 à 100).

For `O=S(=O)(CC(O)(CBr)c1cc(Cl)cc(Cl)c1)c1cccs1` (stereo not shown) [compound 62], which “Notation de l'activité herbicide GLY” value is on record?
Its value is 0 (90 à 100).

With `Cc1cc(C(O)(CBr)CS(=O)(=O)c2ccsc2)ccc1F` (stereo not shown) [compound 66] as the molecule, how does the “Notation de l'activité herbicide GLY” value read?
Its value is 1 (70 à 90).

Same assay, conditions: dose 2 Kg m.a./ha, 24 days, 0 or 1 = selective

With `C=C(CS(=O)(=O)/C=C/C)c1ccccc1` [compound 70, (E)-2-phényl 1-(1-propénylsulfonyl)2-propène] as the molecule, how does the “Notation de l'activité herbicide GLY” value read?
Its value is 0 (90 à 100).
